From patent US20090099167A1, “Organic compounds” (Novartis Institutes for Biomedical Research, priority 2004, published 2009)
Where two headings read alike, the source gives them in different places.

Molecular target: T1, human Flt-3 (Homo sapiens, UniProt P36888)
T1 construct: expressing the amino acid region amino acids 563-993 of the cytoplasmic kinase domain of human Flt-3; made in house; host or cells: Sf9 (baculovirus)
T1 sequence (P36888 563-993): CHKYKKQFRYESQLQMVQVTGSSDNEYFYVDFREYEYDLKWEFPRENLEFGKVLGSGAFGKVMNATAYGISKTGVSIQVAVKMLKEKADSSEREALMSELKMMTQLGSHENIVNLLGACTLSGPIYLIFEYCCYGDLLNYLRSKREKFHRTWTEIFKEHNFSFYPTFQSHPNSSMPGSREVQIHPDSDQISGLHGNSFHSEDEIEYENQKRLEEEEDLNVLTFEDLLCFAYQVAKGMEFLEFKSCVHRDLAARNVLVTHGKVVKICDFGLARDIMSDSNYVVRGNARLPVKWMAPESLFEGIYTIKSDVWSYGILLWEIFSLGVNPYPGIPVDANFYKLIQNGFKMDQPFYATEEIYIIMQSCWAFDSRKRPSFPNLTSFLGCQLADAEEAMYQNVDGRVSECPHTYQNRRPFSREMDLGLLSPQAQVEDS
Test: Flt3 kinase inhibition, GST-Flt-3, 33P incorporation into poly(Glu,Tyr)
Assay type: biochemical
Description: The compounds to be tested are then diluted in culture medium (without FCS, with 0.1% bovine serum albumin) and added to the cells. (Controls comprise medium without test compounds). After two hours' incubation at 37° C., recombinant VEGF is added; the final VEGF concentration is 20 ng/ml). After a further five minutes incubation at 37° C., the cells are washed twice with ice-cold PBS (phosphate-buffered saline) and immediately lysed in 100 μl lysis buffer per well. The lysates are then centrifuged to remove the cell nuclei, and the protein concentrations of the supernatants are determined using a commercial protein assay (BIORAD). The lysates can then either be immediately used or, if necessary, stored at −20° C. A sandwich ELISA is carried out to measure the VEGF-R2 phosphorylation: a monoclonal antibody to VEGF-R2 (for example Mab 1495.12.14; ProQinase, Freiburg, Germany) is immobilized on black ELISA plates (OptiPlate™ HTRF-96 from Packard). The plates are then washed and the remaining free protein-binding sites are saturated with 3% TopBlock® (Juro, Cat. # TB232010) in phosphate buffered saline with Tween 20® (polyoxyethylen(20)-sorbitane monolaurate, ICI/Uniquema) (PBST). The cell lysates (20 μg protein per well) are then incubated in these plates overnight at 4° C. together with an antiphosphotyrosine antibody coupled with alkaline phosphatase (PY20:AP from Zymed). […] The luminescence is measured in a Packard Top Count Microplate Scintillation Counter. The difference between the signal of the positive control (stimulated with VEGF) and that of the negative control (not stimulated with VEGF) corresponds to VEGF-induced VEGF-R2 phosphorylation (=100%). The activity of the tested substances is calculated as percent inhibition of VEGF-induced VEGF-R2 phosphorylation, wherein the concentration of substance that induces half the maximum inhibition is defined as the IC50 (inhibitory dose for 50% inhibition). […] Flt3 kinase inhibition is determined as follows: The baculovirus donor vector pFbacG01 (GIBCO) is used to generate a recombinant baculovirus expressing the amino acid region amino acids 563-993 of the cytoplasmic kinase domain of human Flt-3. The coding sequence for the cytoplasmic domain of Flt-3 is amplified by PCR from human c-DNA libraries (Clontech). The amplified DNA fragments and the pFbacG01 vector are made compatible for ligation by digestion with BamH1 and HindIII. Ligation of these DNA fragments results in the baculovirus donor plasmid Flt-3(1.1). The production of the viruses, the expression of proteins in Sf9 cells and the purification of the GST-fused proteins are performed as follows: Production of virus: Transfer vector (pFbacG01-Flt-3) containing the Flt-3 kinase domain is transfected into the DH10Bac cell line (GIBCO) and the transfected cells are plated on selective agar plates. Colonies without insertion of the fusion sequence into the viral genome (carried by the bacteria) are blue. Single white colonies are picked and viral DNA (bacmid) is isolated from the bacteria by standard plasmid purification procedures. Sf9 or Sf21 cells (American Type Culture Collection) are then transfected in flasks with the viral DNA using Cellfectin reagent. Determination of small scale protein expression in Sf9 cells: Virus containing media is collected from the transfected cell culture and used for infection to increase its titre. Virus containing media obtained after two rounds of infection is used for large-scale protein expression. For large-scale protein expression 100 cm^2 round tissue culture plates are seeded with 5×10^7 cells/plate and infected with 1 mL of virus-containing media (approx. 5 MOIs). After 3 days the cells are scraped off the plate and centrifuged at 500 rpm for 5 min. Cell pellets from 10-20, 100 cm^2 plates, are resuspended in 50 mL of ice-cold lysis buffer (25 mMTris-HCl, pH 7.5, 2 mM EDTA, 1% NP-40, 1 mM DTT, 1 mM PMSF). The cells are stirred on ice for 15 min and then centrifuged at 5000 rpms for 20 min. […]

[1] = Table 5, read-out: Flt-3, IC50 class

Compound | IC50 (Table 4, read-out: Flt-3, activity (IC50 for kinase inhibition)) | IC50 [1]
CN1CCN(c2cccc(-c3cnn4c(N)c(-c5ccc(O)cc5)cnc34)c2)CC1 [Example 39, 4-{7-Amino-3-[3-(4-methyl-piperazin-1-yl)-phenyl]-pyrazolo[1,5-a]pyrimidin-6-yl}-phenol] | < 10 µM | 
COc1cc(N2CCN(C)CC2)ccc1-c1cnn2c(N)c(-c3cccc(O)c3)cnc12 [Example 76, 3-{7-Amino-3-[2-methoxy-4-(4-methyl-piperazin-1-yl)-phenyl]-pyrazolo[1,5-a]pyrimidin-6-yl}-phenol] |  | < 1 µM
CN1CCN(c2ccc(-c3cnn4c(N)c(-c5ccccc5Cl)cnc34)cc2)CC1 [Example 77, 6-(2-Chloro-phenyl)-3-[4-(4-methyl-piperazin-1-yl)-phenyl]-pyrazolo[1,5-a]pyrimidin-7-ylamine] |  | < 1 µM
CN1CCN(c2cccc(-c3cnn4c(N)c(-c5ccccc5Cl)cnc34)c2)CC1 [Example 78, 6-(2-Chloro-phenyl)-3-[3-(4-methyl-piperazin-1-yl)-phenyl]-pyrazolo[1,5-a]pyrimidin-7-ylamine] |  | < 1 µM
Cc1nc2c(-c3ccc(N4CCN(C)CC4)cc3)cnn2c(N)c1-c1ccc(F)cc1 [Example 79, 6-(4-Fluoro-phenyl)-5-methyl-3-[4-(4-methyl-piperazin-1-yl)-phenyl]-pyrazolo[1,5-a]pyrimidin-7-ylamine] |  | > 10 µM
CN1CCN(c2cccc(-c3cnn4c(N)c(Cc5cccc(Br)c5)cnc34)c2)CC1 [Example 85, 6-(3-Bromo-benzyl)-3-[3-(4-methyl-piperazin-1-yl)-phenyl]pyrazolo[1,5-a]pyrimidin-7-ylamine] |  | > 10 µM
COc1ccc(-c2cnn3c(N)c(-c4cccc(Cl)c4)c(C)nc23)cc1 [Example 88, 6-(3-Chloro-phenyl)-3-(4-methoxy-phenyl)-5-methyl-pyrazolo[1,5-a]pyrimidin-7-ylamine] |  | > 10 µM
CN1CCN(c2cccc(-c3cnn4c(N)c(Cc5ccccc5)cnc34)c2)CC1 [Example 91, 6-Benzyl-3-[3-(4-methyl-piperazin-1-yl)-phenyl]-pyrazolo[1,5-a]pyrimidin-7-ylamine] |  | > 10 µM
COc1ccc(-c2cnn3c(N)c(-c4cccc(Cl)c4)c(CF)nc23)cc1OC [Example 92, 6-(3-Chloro-phenyl)-3-(3,4-dimethoxy-phenyl)-5-fluoromethyl-pyrazolo[1,5-a]pyrimidin-7-ylamine] |  | > 10 µM
COc1ccc(-c2cnn3c(N)c(-c4cccc(Cl)c4)c(C)nc23)cc1OC [Example 93, 6-(3-Chloro-phenyl)-3-(3,4-dimethoxy-phenyl)-5-methyl-pyrazolo[1,5-a]pyrimidin-7-ylamine] |  | > 10 µM
COc1ccc(-c2cnn3c(N)c(-c4ccc(F)c(Cl)c4)c(C)nc23)cc1OC [Example 94, 6-(3-Chloro-4-fluoro-phenyl)-3-(3,4-dimethoxy-phenyl)-5-methyl-pyrazolo[1,5-a]pyrimidin-7-ylamine] |  | > 10 µM
COc1ccc(-c2cnn3c(N)c(-c4ccc(F)c(Cl)c4)c(C)nc23)cc1 [Example 95, 6-(3-Chloro-4-fluoro-phenyl)-3-(4-methoxy-phenyl)-5-methyl-pyrazolo[1,5-a]pyrimidin-7-ylamine] |  | > 10 µM
COc1ccc(-c2cnn3c(N)c(-c4ccc(F)cc4)c(C)nc23)cc1 [Example 96, 6-(4-Fluoro-phenyl)-3-(4-methoxy-phenyl)-5-methyl-pyrazolo[1,5-a]pyrimidin-7-ylamine] |  | > 10 µM

Continued, values first:

IC50 (Table 4, read-out: Flt-3, activity (IC50 for kinase inhibition)) | IC50 [1] | Compound
 | > 10 µM | Cc1nc2c(-c3cccc(N4CCN(C)CC4)c3)cnn2c(N)c1-c1cccc(Cl)c1 [Example 72, 6-(3-Chloro-phenyl)-5-methyl-3-[3-(4-methyl-piperazin-1-yl)-phenyl]-pyrazolo[1,5-a]pyrimidin-7-ylamine]
 | > 10 µM | Cc1nc2c(-c3ccc(N4CCN(C)CC4)cc3)cnn2c(N)c1-c1cccc(Cl)c1 [Example 73, 6-(3-Chloro-phenyl)-5-methyl-3-[4-(4-methyl-piperazin-1-yl)-phenyl]-pyrazolo[1,5-a]pyrimidin-7-ylamine]
 | 1 to 10 µM | Cc1nc2c(-c3cccc(N4CCN(C)CC4)c3)cnn2c(N)c1-c1ccc(F)cc1 [Example 80, 6-(4-Fluoro-phenyl)-5-methyl-3-[3-(4-methyl-piperazin-1-yl)-phenyl]-pyrazolo[1,5-a]pyrimidin-7-ylamine]
 | > 10 µM | Cc1nc2c(-c3cccc(N4CCN(C5CCN(C)CC5)CC4)c3)cnn2c(N)c1-c1cccc(Cl)c1 [Example 81, 6-(3-Chloro-phenyl)-5-methyl-3-{3-[4-(1-methyl-piperidin-4-yl)-piperazin-1-yl]-phenyl}-pyrazolo[1,5-a]pyrimidin-7-ylamine]
 | > 10 µM | Cc1nc2c(-c3cccc(N4CCN(C)CC4)c3)cnn2c(N)c1-c1ccc(F)c(Cl)c1 [Example 82, 6-(3-Chloro-4-fluoro-phenyl)-5-methyl-3-[3-(4-methyl-piperazin-1-yl)-phenyl]pyrazolo[1,5-a]pyrimidin-7-ylamine]
 | > 10 µM | Cc1nc2c(-c3ccc(N4CCN(C)CC4)cc3)cnn2c(N)c1-c1ccc(F)c(Cl)c1 [Example 83, 6-(3-Chloro-4-fluoro-phenyl)-5-methyl-3-[4-(4-methyl-piperazin-1-yl)-phenyl]-pyrazolo[1,5-a]pyrimidin-7-ylamine]
 | > 10 µM | Cc1nc2c(-c3cccc(N4CCN(C)CC4)c3)cnn2c(N)c1-c1cccc(Br)c1 [Example 84, 6-(3-Bromo-phenyl)-5-methyl-3-[3-(4-methyl-piperazin-1-yl)-phenyl]-pyrazolo[1,5-a]pyrimidin-7-ylamine]
 | > 10 µM | CN1CCN(c2cccc(-c3cnn4c(N)c(-c5cccc(Br)c5)cnc34)c2)CC1 [Example 86, 6-(3-Bromo-phenyl)-3-[3-(4-methyl-piperazin-1-yl)-phenyl]-pyrazolo[1,5-a]pyrimidin-7-ylamine]
 | > 10 µM | Cc1nc2c(-c3cccc(N4CCOCC4)c3)cnn2c(N)c1-c1cccc(Cl)c1 [Example 87, 6-(3-Chloro-phenyl)-5-methyl-3-(3-morpholin-4-yl-phenyl)-pyrazolo[1,5-a]pyrimidin-7-ylamine]
 | > 10 µM | Cc1nc2c(-c3cccc(N4C[C@@H](C)O[C@@H](C)C4)c3)cnn2c(N)c1-c1cccc(Cl)c1 [Example 89, 6-(3-Chloro-phenyl)-3-[3-((2R,6S)-2,6-dimethyl-morpholin-4-yl)-phenyl]-5-methyl-pyrazolo[1,5-a]pyrimidin-7-ylamine]
 | > 10 µM | Cc1nc2c(-c3cccc(N4CCN(CCO)CC4)c3)cnn2c(N)c1-c1cccc(Cl)c1 [Example 90, 2-(4-{3-[7-Amino-6-(3-chloro-phenyl)-5-methyl-pyrazolo[1,5-a]pyrimidin-3-yl]-phenyl}-piperazin-1-yl)-ethanol]
 | > 10 µM | Cc1nc2c(-c3cccc(N4CCN(CCO)CC4)c3)cnn2c(N)c1-c1ccc(F)cc1 [Example 97, 2-(4-{3-[7-Amino-6-(4-fluoro-phenyl)-5-methyl-pyrazolo[1,5-a]pyrimidin-3-yl]-phenyl}-piperazin-1-yl)-ethanol]
